Patent US20260234166A1, “FUSED RING COMPOUND AND USE THEREOF” (HITGEN INC., priority 2023, published 2026)
Where two headings read alike, the source gives them in different places.

Target: CRBN/DDB1 protein (Homo sapiens, UniProt Q96SW2)
Assay: Detection of inhibition of CRBN/DDB1 activity by compounds (FRET)
Format: binding
Procedure: Test Example 1 Detection of Inhibition of CRBN/DDB1 Activity by Compounds (FRET)
Microplate reader (BMG PHERAstar FSX), ECHO (LABCYTE Echo 665), microplate thermostatic oscillator (Hangzhou Ruicheng Instrument Co., Ltd.), disodium hydrogen phosphate (Sigma), sodium dihydrogen phosphate (Sigma), bovine serum albumin (Sigma), Anti-6His-Tb crypate Gold (CISBIO), CRBN/DDB1 protein (HitGen) and 384-well plate (Grenier Bio-one).
The dry powder of the compound was dissolved in DMSO, and the compound was serially diluted using ECHO, and added to a 384-well reaction plate, so that the final concentration of DMSO in the whole reaction system (10.0 μL) was 1.0%, and the same amount of DMSO was added as a control.
20 mM disodium hydrogen phosphate, 20 mM sodium dihydrogen phosphate, 0.08% bovine serum albumin and buffer with pH of 7.0 were used to dilute the CRBN/DDB1 protein to twice the required final concentration (5.0 nM), and 5.0 μL of the diluted CRBN/DDB1 protein was added into the 384-well reaction plate added with compounds, centrifuged at 1000 rpm for 1 min, then placed on a microplate thermostatic oscillator, and pre-incubated at 25° C. and 250 rpm for 15 min. 20 mM disodium hydrogen phosphate, 20 mM sodium dihydrogen phosphate, 0.08% bovine serum albumin and buffer with a pH of 7.0 were used to dilute Anti-6His-Tb crypate Gold and FITC-labeled thalidomide analogues to twice the required final concentration, and the final concentration of Anti-6His-Tb crypate Gold was 0.2 nM, the final concentration of FITC-labeled thalidomide analogues was 50.0 nM, and a mixed solution of Anti-6His-Tb crypate Gold/FITC-labeled thalidomide analogues was obtained. […] After the reaction was completed, the fluorescence signal value (Ex-337 nm Em=520/490 nm) in the 384-well reaction plate was read by the microplate reader. […]
The percentage of residual activity of each concentration was calculated as follows: […]
Then, the dose-effect curve was fitted using GraphPad Prism 6.0 and the IC50 value was calculated accordingly.

Chain of CRBN/DDB1 protein (Q96SW2 whole entry, species assumed): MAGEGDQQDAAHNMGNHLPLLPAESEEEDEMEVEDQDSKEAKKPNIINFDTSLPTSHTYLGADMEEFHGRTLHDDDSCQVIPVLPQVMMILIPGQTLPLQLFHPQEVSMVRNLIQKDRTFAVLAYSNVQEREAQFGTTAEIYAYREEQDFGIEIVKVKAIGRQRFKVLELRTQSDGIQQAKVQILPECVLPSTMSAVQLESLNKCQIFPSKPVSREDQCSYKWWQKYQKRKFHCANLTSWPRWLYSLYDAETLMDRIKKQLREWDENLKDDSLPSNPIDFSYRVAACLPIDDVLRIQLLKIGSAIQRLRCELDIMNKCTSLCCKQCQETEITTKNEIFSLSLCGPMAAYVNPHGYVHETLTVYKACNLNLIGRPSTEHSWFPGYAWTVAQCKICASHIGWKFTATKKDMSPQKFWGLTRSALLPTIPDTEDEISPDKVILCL
Chain of CRBN/DDB1 protein (Q16531 whole entry partner, species assumed): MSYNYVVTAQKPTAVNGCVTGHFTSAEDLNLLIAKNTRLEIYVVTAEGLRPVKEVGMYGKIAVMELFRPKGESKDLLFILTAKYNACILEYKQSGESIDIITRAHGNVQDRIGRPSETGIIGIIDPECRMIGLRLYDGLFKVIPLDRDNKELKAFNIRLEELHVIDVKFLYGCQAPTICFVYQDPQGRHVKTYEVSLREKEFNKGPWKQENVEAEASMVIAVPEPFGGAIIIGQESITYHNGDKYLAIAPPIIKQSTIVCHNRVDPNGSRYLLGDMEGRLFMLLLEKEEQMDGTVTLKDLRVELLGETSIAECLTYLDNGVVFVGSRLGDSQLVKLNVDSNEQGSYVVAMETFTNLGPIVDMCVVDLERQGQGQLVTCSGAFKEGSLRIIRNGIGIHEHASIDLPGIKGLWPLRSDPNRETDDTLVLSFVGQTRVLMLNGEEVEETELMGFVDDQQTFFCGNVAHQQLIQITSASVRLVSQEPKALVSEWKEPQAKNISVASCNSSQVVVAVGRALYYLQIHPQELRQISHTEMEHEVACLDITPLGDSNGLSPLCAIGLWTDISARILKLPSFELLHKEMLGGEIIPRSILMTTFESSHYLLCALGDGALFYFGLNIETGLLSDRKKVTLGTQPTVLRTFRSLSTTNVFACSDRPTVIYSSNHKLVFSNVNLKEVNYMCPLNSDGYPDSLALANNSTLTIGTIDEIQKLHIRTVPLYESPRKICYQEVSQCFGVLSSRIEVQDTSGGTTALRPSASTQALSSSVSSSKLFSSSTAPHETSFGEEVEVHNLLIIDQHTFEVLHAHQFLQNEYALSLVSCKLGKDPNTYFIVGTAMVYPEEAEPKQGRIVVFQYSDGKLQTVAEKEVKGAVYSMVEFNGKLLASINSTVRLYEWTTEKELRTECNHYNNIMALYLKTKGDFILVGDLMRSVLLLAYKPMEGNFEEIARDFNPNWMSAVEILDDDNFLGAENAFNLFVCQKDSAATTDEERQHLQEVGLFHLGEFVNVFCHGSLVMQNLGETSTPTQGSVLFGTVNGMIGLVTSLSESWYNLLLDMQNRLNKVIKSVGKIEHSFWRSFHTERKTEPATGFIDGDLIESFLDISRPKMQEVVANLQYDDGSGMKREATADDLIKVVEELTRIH

IC50 (FRET, 5.0 nM CRBN/DDB1, 0.2 nM Anti-6His-Tb, 50.0 nM FITC-labeled thalidomide analogue, 1.0% DMSO, 25° C., read-out: IC50, inhibition of CRBN/DDB1 protein) [nM]	SMILES	IC50 [nM]
11	CN1Cn2c(c(C(=O)N3CC4(CC(=O)NC4=O)C3)c3ccccc32)C1=O [Compound B5]	
	O=C1CC2(CN(C(=O)c3c4n(c5ccccc35)C=NC4=O)C2)C(=O)N1 [Compound B3]	43
	O=C1CC2(CN(C(=O)c3c4n(c5ccccc35)CNC4=O)C2)C(=O)N1 [Compound B4]	18
